Measured values published in publication PMC4245160 (ACS Chemical Biology, 2014).
pEC50: −log10 of the molar value.

Biological target: T1, mouse OR-I7 (Mus musculus, UniProt Q9QWU6)
T1 sequence (Q9QWU6 1-327): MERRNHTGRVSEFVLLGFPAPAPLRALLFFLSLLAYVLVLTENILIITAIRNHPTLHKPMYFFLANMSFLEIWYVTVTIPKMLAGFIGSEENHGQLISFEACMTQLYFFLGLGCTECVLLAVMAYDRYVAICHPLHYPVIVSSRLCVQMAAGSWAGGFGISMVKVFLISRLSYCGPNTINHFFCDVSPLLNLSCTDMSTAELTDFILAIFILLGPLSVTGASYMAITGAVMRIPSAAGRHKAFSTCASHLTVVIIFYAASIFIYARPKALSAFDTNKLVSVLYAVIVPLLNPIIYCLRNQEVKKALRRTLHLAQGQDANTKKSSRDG
Experiment: GloSensor cAMP assay in Hana3A cells expressing recombinant receptor
Type: cell-based

SMILES	pEC50
CCCCCCCC=O [compound 1, octanal]	~5.82
CCCCCCC(F)(F)C=O [compound 2, 2,2-difluorooctanal]	~5.00
